# Laboratory results from US20260327214A1, “1,3,4-OXADIAZOLE DERIVATIVE COMPOUNDS AS HISTONE DEACETYLASE 6 INHIBITOR, AND USES THEREOF” (CHONG KUN DANG PHARMACEUTICAL CORP., priority 2022, published 2026).
# How the values were obtained:
# [1] = target: T1, human recombinant HDAC6 (Homo sapiens, UniProt Q9UBN7); assay: HDAC6 enzyme activity inhibition test (HDAC Fluorometric Drug Discovery Kit); assay type: biochemical; conditions: for HDAC6 selectivity (fold): HDAC6 over HDAC1; for IC50: human recombinant HDAC6, same protocol as HDAC1
# T1 construct: purchased Calbiochem 382180
# T1 sequence (Q9UBN7 1-1215): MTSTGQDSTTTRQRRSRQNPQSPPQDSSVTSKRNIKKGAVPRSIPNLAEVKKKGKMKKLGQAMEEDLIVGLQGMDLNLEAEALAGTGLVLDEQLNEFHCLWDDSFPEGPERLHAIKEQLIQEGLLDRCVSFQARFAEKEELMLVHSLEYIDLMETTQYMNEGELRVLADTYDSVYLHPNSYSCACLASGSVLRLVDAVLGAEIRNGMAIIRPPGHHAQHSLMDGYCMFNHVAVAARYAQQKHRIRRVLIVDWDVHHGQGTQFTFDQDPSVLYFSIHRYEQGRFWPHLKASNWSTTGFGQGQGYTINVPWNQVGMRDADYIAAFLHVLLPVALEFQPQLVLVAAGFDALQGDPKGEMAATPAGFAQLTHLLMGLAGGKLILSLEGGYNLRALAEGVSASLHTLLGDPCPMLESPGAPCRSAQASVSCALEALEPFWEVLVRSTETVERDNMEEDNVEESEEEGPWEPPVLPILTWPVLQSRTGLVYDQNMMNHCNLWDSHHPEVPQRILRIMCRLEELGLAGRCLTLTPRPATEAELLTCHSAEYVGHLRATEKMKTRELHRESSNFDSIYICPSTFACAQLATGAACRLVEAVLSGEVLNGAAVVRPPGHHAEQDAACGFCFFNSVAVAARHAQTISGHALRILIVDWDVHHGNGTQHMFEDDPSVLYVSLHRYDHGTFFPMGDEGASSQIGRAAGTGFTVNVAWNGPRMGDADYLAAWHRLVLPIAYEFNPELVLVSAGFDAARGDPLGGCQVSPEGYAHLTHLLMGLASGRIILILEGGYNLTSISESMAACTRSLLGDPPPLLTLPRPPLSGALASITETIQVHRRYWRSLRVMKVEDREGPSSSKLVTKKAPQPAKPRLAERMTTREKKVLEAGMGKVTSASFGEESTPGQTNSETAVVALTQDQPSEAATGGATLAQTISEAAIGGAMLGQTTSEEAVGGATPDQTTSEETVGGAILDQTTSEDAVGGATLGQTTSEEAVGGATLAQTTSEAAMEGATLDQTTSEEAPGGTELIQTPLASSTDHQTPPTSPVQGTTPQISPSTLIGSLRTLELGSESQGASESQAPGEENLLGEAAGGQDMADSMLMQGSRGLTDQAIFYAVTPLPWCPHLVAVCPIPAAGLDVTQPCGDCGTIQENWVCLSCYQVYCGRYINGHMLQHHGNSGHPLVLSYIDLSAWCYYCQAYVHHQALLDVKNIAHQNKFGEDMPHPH
# Outline: (§1)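 IC50 derived from fluorescence (Ex 360, Em 460) following 30 min development with Developer II. Each reaction held 0.3 μg human recombinant HDAC1 or HDAC6, 10 μM Fluor de Lys SIRT1 substrate and 5-fold serially diluted compound, incubated 60 min at 30 °C.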
# [2] = target: T2, human recombinant HDAC1 (Homo sapiens, UniProt Q13547); assay: HDAC1 enzyme activity inhibition test (HDAC Fluorometric Drug Discovery Kit); assay type: biochemical; conditions: 30° C., 60 minutes, 10 μM substrate
# T2 construct: purchased Enzo Life Science BML-SE456
# T2 sequence (Q13547 whole entry): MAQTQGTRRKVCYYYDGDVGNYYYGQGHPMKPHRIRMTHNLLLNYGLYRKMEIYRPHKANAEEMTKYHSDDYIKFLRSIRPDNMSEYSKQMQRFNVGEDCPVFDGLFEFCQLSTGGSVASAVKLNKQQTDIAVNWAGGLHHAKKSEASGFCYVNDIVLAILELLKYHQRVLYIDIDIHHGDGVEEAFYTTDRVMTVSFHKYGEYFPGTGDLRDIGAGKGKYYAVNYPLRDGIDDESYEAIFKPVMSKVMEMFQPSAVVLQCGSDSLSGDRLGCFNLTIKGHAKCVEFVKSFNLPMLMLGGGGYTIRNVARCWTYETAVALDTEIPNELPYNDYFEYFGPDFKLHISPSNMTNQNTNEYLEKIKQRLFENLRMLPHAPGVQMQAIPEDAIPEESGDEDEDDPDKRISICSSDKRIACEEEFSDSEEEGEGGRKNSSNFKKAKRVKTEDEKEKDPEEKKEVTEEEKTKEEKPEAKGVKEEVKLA
# Outline: as §1
Compound,HDAC6 selectivity (fold) [1] [fold],IC50 [1] [µM],IC50 [2] [µM]
"CC(C)N1CCN(c2cccc(-c3nn(Cc4ccc(-c5nnc(C(F)F)o5)cn4)c(=O)o3)n2)CC1 [Compound 6, 3-[[5-[5-(difluoromethyl)-1,3,4-oxadiazol-2-yl]-2-pyridyl]methyl]-5-[6-(4-isopropylpiperazin-1-yl)-2-pyridyl]-1,3,4-oxadiazol-2-one]",1078,0.0464,> 50
"CN1CCN(c2cccc(-c3nn(Cc4ccc(-c5nnc(C(F)F)o5)cn4)c(=O)o3)c2)CC1 [Compound 37, 3-[[5-[5-(difluoromethyl)-1,3,4-oxadiazol-2-yl]-2-pyridyl]methyl]-5-[3-(4-methylpiperazin-1-yl)phenyl]-1,3,4-oxadiazol-2-one]",512,0.0977,> 50
"Fc1cc(-c2nnc(C(F)F)o2)cnc1Cn1nc(-c2cccnc2)oc1=S [Compound 62, 3-[[5-[5-(difluoromethyl)-1,3,4-oxadiazol-2-yl]-3-fluoro-2-pyridyl]methyl]-5-(3-pyridyl)-1,3,4-oxadiazol-2-thione]",500,0.1,> 50
